Laboratory results taken from US7879898B1, “Hepatocyte growth factor pathway activators in chronic obstructive pulmonary disease” (Angion Biomedica Corp., priority 2006, dated 2011).

Experiments:
[1] = system: bovine pulmonary endothelial cells (bPAEC); experiment: CytoSelect 24-well cell migration assay of bPAEC; type: cell-based; conditions: 24 h; multiple concentrations; FIG. 2
Description: Another important pulmotrophic activity of HGF is to stimulate migration of pulmonary endothelial cells. Again, bPAEC cells were used to test if test compound, like HGF, can stimulate migration of the cells. The CytoSelect 24-well cell migration assay (Cell Biolabs, Inc.) was used to measure the migration of bPAEC cells according to the kit manual.
CytoSelect 24-well cell migration assay kit (Cell Biolabs, Inc.) was used. Briefly, ˜300,000 cells/chamber were seeded in serum-free medium and put into a larger well containing medium with no-serum (C), serum, HGF, compound at multiple concentrations (see above), respectively, and incubated for 24 h. The medium was then aspirated from the chamber and then carefully and completely, the cells on the inner surface of the membrane were removed with cotton and the membrane washed twice. The migrated cells were stained and quantified by measuring OD at 560 nm. The mean values from bouble wells for each compound are shown.

[2] = system: bovine pulmonary endothelial cells (bPAEC); experiment: 3H-thymidine incorporation cell proliferation assay in bPAEC combined with c-Met siRNA; type: cell-based; conditions: serial dilutions of 5-((E)-2-thiophen-2-yl-vinyl)-1H-pyrazole or HGF; with c-Met siRNA knockdown; FIG. 1B-C
Description: Compounds promote proliferation of pulmonary endothelial cells specifically through c-Met. Proliferation of pulmonary endothelial cells is one of the important pulmotrophic activities of HGF. […] First, a c-Met siRNA was used with a lipo-transfecting reagent to knock down the c-Met mRNA level in bPAEC cells, and real time RT-PCR conducted to measure the effect. The c-Met siRNA can knock down ˜90% of c-Met mRNA at a c-Met siRNA concentration as low as 50 nM. Next, the siRNA knockdown condition established from the first step was used to decrease >=90% of c-Met mRNA in bPAEC by using 100 nM of the c-Met siRNA pool, and subsequently ^3H-thymidine incorporation assay was performed in the bPAEC cells.
Shown in FIG. 1B-C, ˜5,000/well bPAEC were plated in 96 well plates. The steps as described above were continued until 24 h after adding the mixture of siRNAs and lipofectamine. Then the medium was changed with the fresh mixture of siRNAs and lipofectamine containing serial dilutions of the compound 5-((E)-2-thiophen-2-yl-vinyl)-1H-pyrazole or HGF, incubated another 24 h, 100 ul of ^3H-thymidine(1uCi/ml) was added and incubation continued overnight. Then, 100 ul/well Trypsin/EDTA was added, and ^3H-thymidine incorporation analysis was conducted using an auto-harvester and Topcount NXT v2.12 instrument.

Q: With “HGF: hepatocyte growth factor (HGF; also known as scatter factor), acts through its receptor c-Met” as the substance, how does the “migration of bPAEC cells (OD at 560 nM)” value [1] read?
A: stimulates bPAEC cells migration

Q: And the “proliferation of bPAEC cells (3H-thymidine incorporation)” value [2]?
A: promote proliferation of bPAEC cells specifically through HGF receptor c-Met
